Experimental data published in US11679107B2 (Eisai R&D Management Co., Ltd., priority 2018, dated 2023).
Read-outs that look alike come from different tables or passages of the source.

Legend:
[1] = tested on: Panc 05.04 cells (SF3b K700E mutant); assay: Cell proliferation and viability, CellTiter-Glo, 72 hours; format: cell-based; details: for GI50: geometric mean
In short: (§1)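 RPMI-1640/10% FBS (Panc: + insulin, FBS 15%); 11-pt half-log dose, ~10 μM-100 pM, 0.1% DMSO; 37° C, 5% CO2; ATP luminescence read; % inhibition vs T0 and vehicle, −100% cidal to 100% uninhibited growth.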

[2] = tested on: NCI-H1568 cells (high MCL1); assay: as above; format: cell-based; details: for GI50: geometric mean
In short: as §1

[3] = tested on: Ad2 variant pre-mRNAs spliced in HeLa S3 nuclear extracts; assay: In vitro splicing assay (IVS), RT-qPCR of spliced product; format: biochemical; details: for IC50: geometric mean; for Ratio Ad2.1/2.2: ratio of IVS IC50 Ad2.1 to Ad2.2
In short: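 Read-out is one-step TaqMan RT-qPCR of spliced Ad2 mRNA with Ftz as reference, normalized to DMSO and fit by non-linear regression. Reactions held HeLa S3 nuclear extract, 2 ng Ad2-derived pre-mRNA and test compound, with 15 min preincubation. Splicing was started with ATP-containing activation buffer and run 90 min at 30 °C.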

SF3b complexes = molecular target: T1, SF3b complexes (Homo sapiens, UniProt O75533+Q7RTV0); assay: Scintillation proximity assay (SPA) with [3H]-labelled pladienolide probe; format: binding; details: SF3B1 (WT); geometric mean; read-out: SPA-ATS GMean IC50 (nM) SF3B1 (WT)
T1 construct: endogenous in cells; host or cells: Nuclear extracts; A HeLa S3 extract preparation is described for the in vitro splicing assay
In short: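 SF3b complexes captured from nuclear extracts on anti-SF3B1 antibody SPA beads; test compounds pre-incubated 30 min before 2.5 nM [3H]-pladienolide probe added, then 30 min incubation. Bound probe read by scintillation; values from non-linear regression of concentration–response curves.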

[4] = PANC0504.1 cells, 72 h, −100% cidal, 0% static, 100% maximal growth
[5] = Panc 05.04, read-out: CTGlo-ATS GMean GI50 (nM) 72 h PANC0504.1, PANC0504.1 cells, 72 h
[6] = NCI-H1568, read-out: CTGlo-ATS GMean GI50 (nM) 72 h NCIH1568.1, NCIH1568.1 cells, 72 h
[7] = NCIH1568.1 cells, 72 h, −100% cidal, 0% static, 100% maximal growth
[8] = Ad2.1 pre-mRNA substrate, read-out: qPCR-IVS-ATS GMean IC50 (nM) Ad2.1
[9] = Ad2.2 pre-mRNA substrate, read-out: qPCR-IVS-ATS GMean IC50 (nM) Ad2.2
[10] = Panc 05.04, 72 h, read-out: CTGlo-ATS GMean GI50 (nM) 72 h PANC0504.1, PANC0504.1 cells, 72 h
[11] = NCI-H1568, 72 h, read-out: CTGlo-ATS GMean GI50 (nM) 72 h NCIH1568.1, NCIH1568.1 cells, 72 h
[12] = 72 h, PANC0504.1, -100% = cidal, 0% = static, 100% = uninhibited growth
[13] = Panc 05.04, read-out: CTGlo-ATS GMean GI50 (nM) 72 h PANC0504.1, 72 h, PANC0504.1
[14] = 72 h, NCIH1568.1, -100% = cidal, 0% = static, 100% = uninhibited growth
[15] = NCI-H1568, read-out: CTGlo-ATS GMean GI50 (nM) 72 h NCIH1568.1, 72 h, NCIH1568.1

Row | SMILES | CTGlo-ATS Mean MinResponse % 72 h PANC0504.1 [1, 4] | GI50 [1, 5] | GI50 [2, 6] | CTGlo-ATS Mean MinResponse % 72 h NCIH1568.1 [2, 7] | IC50 [3, 8] | IC50 [3, 9] | IC50 (SF3b complexes) | GI50 [1, 10] | GI50 [2, 11] | CTGlo-ATS Mean MinResponse % 72 h PANC0504.1 [1, 12] | GI50 [1, 13] | CTGlo-ATS Mean MinResponse % 72 h NCIH1568.1 [2, 14] | GI50 [2, 15] | Ratio Ad2.1/2.2 [3]
1 | C/C(=C\c1cc(F)cc(N2CCC3(COC3)C2)c1)[C@H]1OC(=O)C[C@H](O)CC[C@H](C)[C@@H](OC(=O)N2CCN(C)CC2)/C=C/[C@@H]1C [Compound 33] | −77.334% | 10 nM | 12 nM | −73.122% | 28.4 nM | 27.6 nM | 5.58 nM |  |  |  |  |  |  | 
2 | C/C(=C\c1cc(F)cc(N2CCOCC2)c1)[C@H]1OC(=O)C[C@@H](O)CC[C@@](C)(O)[C@@H](OC(=O)N2CCC(N3CCCCC3)CC2)/C=C/[C@@H]1C [Compound 63] | −96.440% | 41.2 nM | 39.3 nM | −50.769% | 18800 nM | 52 nM | 12.3 nM |  |  |  |  |  |  | 
3 | C/C(=C\c1cc(C)cc(N2CCOCC2)c1)[C@H]1OC(=O)C[C@H](O)CC[C@H](C)[C@@H](OC(=O)N2CCN(C)CC2)/C=C/[C@@H]1C [Compound 18] | −83.683% | 19.9 nM | 26.1 nM | −60.339% | 77.5 nM | 34.3 nM | 16.7 nM |  |  |  |  |  |  | 
4 | C/C(=C\c1cc(F)cc(N2CCOCC2)c1)C1OC(=O)C[C@H](O)CC[C@H](C)[C@@H](OC(=O)N2CCN(C3CCOCC3)CC2)/C=C/[C@@H]1C (stereo partly shown) [Compound 36] | −84.494% |  |  | −54.389% | 236 nM | 32.9 nM | 3.49 nM | 19 nM | 25.4 nM |  |  |  |  | 
5 | C/C(=C\c1cccc(S(=O)(=O)N2CCN(C)CC2)c1)[C@H]1OC(=O)C[C@H](O)CC[C@H](C)[C@@H](OC(=O)N2CCN(C)CC2)/C=C/[C@@H]1C [Compound 211, [(2S,3S,4E,6R,7S,10R)-10-hydroxy-3,7-dimethyl-2-[(E)-1-[3-(4-methylpiperazin-1-yl)sulfonylphenyl]prop-1-en-2-yl]-12-oxo-1-oxacyclododec-4-en-6-yl] 4-methylpiperazine-1-carboxylate] |  |  |  |  | 651 nM | 83.4 nM | 11.9 nM |  |  | −91.820% | 47.6 nM | −52.358% | 60.6 nM | 7.806
6 | C/C(=C\c1cc(F)cc(N2CCN(C#CF)C2=O)c1)[C@H]1OC(=O)C[C@H](O)CC[C@H](C)[C@@H](OC(=O)N2CCN(C)CC2)/C=C/[C@@H]1C [Compound 66] | −89.623% | 8.22 nM | 11.7 nM | −64.699% | 206 nM | 33.9 nM | 2.23 nM |  |  |  |  |  |  | 
7 | C/C(=C\c1cccc(S(=O)(=O)N2CC(F)(F)C2)c1)[C@H]1OC(=O)C[C@H](O)CC[C@H](C)[C@@H](OC(=O)N2CCN(C)CC2)/C=C/[C@@H]1C [Compound 206, [(2S,3S,4E,6R,7S,10R)-2-[(E)-1-[3-(3,3-difluoroazetidin-1-yl)sulfonylphenyl]prop-1-en-2-yl]-10-hydroxy-3,7-dimethyl-12-oxo-1-oxacyclododec-4-en-6-yl] 4-methylpiperazine-1-carboxylate] |  |  |  |  | > 25000 nM | 113 nM | 1.81 nM |  |  | −83.659% | 62.3 nM | −57.585% | 72.2 nM | 221.630
8 | C/C(=C\c1ccc2c(F)nn(CC3CC3)c2c1)[C@H]1OC(=O)C[C@H](O)CC[C@H](C)[C@@H](OC(=O)N2CCN(C)CC2)/C=C/[C@@H]1C [Compound 133] | −94.957% | 25.6 nM | 17.7 nM | −69.167% | 1670 nM | 92.5 nM | 6.99 nM |  |  |  |  |  |  | 
9 | C/C(=C\c1cc(F)cc(N2CCOCC2)c1)[C@H]1OC(=O)C[C@H](O)CC[C@@](C)(O)[C@@H](OC(=O)N2CCC(N3CCCCC3)CC2)/C=C/[C@@H]1C [Compound 62] | −94.536% | 40.5 nM | 54.9 nM | −57.446% | 587 nM | 52.9 nM | 7.86 nM |  |  |  |  |  |  | 
10 | C/C(=C\c1cc(C)cc2[nH]ncc12)[C@H]1OC(=O)C[C@H](O)CC[C@H](C)[C@@H](OC(=O)N2CCN(C)CC2)/C=C/[C@@H]1C [Compound 96] | −14.554% | 168 nM | 305 nM | −29.687% | > 25000 nM | 108 nM | 2.4 nM |  |  |  |  |  |  | 
11 | C/C(=C\c1cc(F)cc(N2CCO[C@@H](C)C2)c1)[C@H]1OC(=O)C[C@H](O)CC[C@H](C)[C@@H](OC(=O)N2CCN(C)CC2)/C=C/[C@@H]1C [Compound 69] | −86.274% |  |  | −76.018% | 36.7 nM | 20.9 nM | 3.83 nM | 7.48 nM | 4.04 nM |  |  |  |  | 
12 | C/C(=C\c1cncc(Cl)c1)[C@H]1OC(=O)C[C@H](O)CC[C@H](C)[C@@H](OC(=O)N2CCN(C)CC2)/C=C/[C@@H]1C [Compound 46] | 0.031% | 40 nM | 78.4 nM | −10.684% | > 25000 nM | 114 nM | 12.2 nM |  |  |  |  |  |  | 
13 | C/C(=C\c1cncc(S(=O)(=O)N2CCCC2)c1)[C@H]1OC(=O)C[C@H](O)CC[C@H](C)[C@@H](OC(=O)N2CCN(C)CC2)/C=C/[C@@H]1C [Compound 205, [(2S,3S,4E,6R,7S,10R)-10-hydroxy-3,7-dimethyl-12-oxo-2-[(E)-1-(5-pyrrolidin-1-ylsulfonylpyridin-3-yl)prop-1-en-2-yl]-1-oxacyclododec-4-en-6-yl] 4-methylpiperazine-1-carboxylate] |  |  |  |  | > 25000 nM | 108 nM | 16.2 nM |  |  | −91.576% | 70.8 nM | −28.455% | 85.9 nM | 232.132
14 | C/C(=C\c1ccc2cnn(C)c2c1)[C@H]1OC(=O)C[C@H](O)CC[C@H](C)[C@@H](OC(=O)N2CCN(C)CC2)/C=C/[C@@H]1C [Compound 55] | −85.478% | 17.2 nM | 21.2 nM | −57.557% | 19900 nM | 45.3 nM | 2.37 nM |  |  |  |  |  |  | 
15 | COCCC(=O)N1CCN(c2cc(F)cc(/C=C(\C)[C@H]3OC(=O)C[C@H](O)CC[C@H](C)[C@@H](OC(=O)N4CCN(C)CC4)/C=C/[C@@H]3C)c2)CC1 [Compound 134] | −92.570% | 4.11 nM | 3.92 nM | −79.743% | 26.5 nM | 13.3 nM | 2.06 nM |  |  |  |  |  |  | 
16 | C/C(=C\c1cc(F)cc(N2CCN(C(=O)C3CCCCC3)CC2)c1)[C@H]1OC(=O)C[C@H](O)CC[C@H](C)[C@@H](OC(=O)N2CCN(C)CC2)/C=C/[C@@H]1C [Compound 114] | −82.856% |  |  | −87.102% | 103 nM | 39.1 nM | 18.2 nM | 12.3 nM | 9.35 nM |  |  |  |  | 
